Results from patent EP0786252A1 (priority 1994, dated 1996).
Like-named read-outs stand apart in the source and are kept apart here. Blank lines part the entries; values can stand above or below the molecule they belong to.

Experiments:
[1] = tested on: lymphocytic leukemia P388 cells; test: Antiproliferative activity against drug-resistant tumor cells (cell count after 72 hours); format: cell-based
Description: (§1) Compound (I) was tested for its antiproliferative activity against lymphocytic leukemia P388 cells, adriamycin-resistant P388 cells (P388/ADM), cisplatin-resistant P388 cells (P388/CDDP), cyclophosphamide-resistant P388 cells (P388/CPM), and mitomycin C-resistant P388 cells (P388/MMC), in the manner described below.
P388 cells were suspended in an RPMI-1640 medium containing 10 % fetal calf serum, 100 units/ml penicillin, 100 µg/ml streptomycin and 20 µM 2-mercaptoethanol at a concentration of 3 x 10^4 cells/ml, and 0.1 ml of the cell suspension was put into each well of a 96-well microplate. The cells were incubated in a carbon dioxide incubator (5 % carbon dioxide) overnight at 37°C, and 0.05 ml/well of a compound (I) that had been suitably diluted with the medium was added to each well.
(§2) The cells were further incubated in the carbon dioxide incubator for 72 hours, then the culture supernatant was removed, and the number of the cells was counted using a cell counter. The number of non-treated cells was compared with that of cells treated with the compound (I), from which was obtained the concentration of the chemical that inhibited 50 % of the cell growth. This is referred to as IC50.

[2] = tested on: adriamycin-resistant P388 cells (P388/ADM); test: as above; format: cell-based
Description: as §1
(§3) P388 cells were suspended in an RPMI-1640 medium containing 10 % fetal calf serum, 100 units/ml penicillin, 100 µg/ml streptomycin and 20 µM 2-mercaptoethanol at a concentration of 3 x 10^4 cells/ml, and 0.1 ml of the cell suspension was put into each well of a 96-well microplate.
as §2
(§4) For the others, P388/ADM cells, P388/CDDP cells, P388/CPM cells and P388/MMC cells, IC50 of the compound (I) was obtained in the same manner as above.

[3] = tested on: cisplatin-resistant P388 cells (P388/CDDP); test: as above; format: cell-based
Description: as §1, §3, §2, §4

[4] = tested on: cyclophosphamide-resistant P388 cells (P388/CPM); test: as above; format: cell-based
Description: as §1, §3, §2, §4

[5] = tested on: mitomycin C-resistant P388 cells (P388/MMC); test: as above; format: cell-based
Description: as §1, §3, §2, §4

[6] = Acute toxicity, intravenous administration; format: in vivo; details: mouse, in vivo, male ddY mice, 30 days after administration, probit analysis
From the text: (§5) Compound (I) was intravenously administered to ddY mice (male; body weight, 19 to 21 g). 30 days after the administration, LD50 and LD10 were obtained through probit analysis.

ddY mice = test: Acute toxicity, intravenous administration; format: in vivo; details: male ddY mice; for Death Rate: 30 days
From the text: as §5

Structure (SMILES): CO[C@@]12[C@H](COC(N)=O)C3=C(C(=O)C(C)=C(N)C3=O)N1C[C@@H]1N[C@@H]12 [MMC, Mitomycin C]
- IC50 ([1]; Mus musculus, P388, 72 h): 40.2 nM
- IC50 ([2]; Mus musculus, P388/ADM, 72 h): 56.9 nM
- IC50 ([3]; Mus musculus, P388, 72 h): 186 nM
- IC50 ([4]; Mus musculus, P388, 72 h): 94.4 nM
- IC50 ([5]; Mus musculus, P388, 72 h): > 300 nM

Structure (SMILES): [NH2][Pt]([NH2])([Cl])[Cl] [CDDP, Cisplatin]
- IC50 ([1]; P388 cells, 72 hours incubation, read-out: IC50): 75.4 nM
- IC50 ([2]; P388/ADM cells, 72 hours incubation, read-out: IC50): 88.3 nM
- IC50 ([3]; P388/CDDP cells, 72 hours incubation, read-out: IC50): 4080 nM
- IC50 ([4]; P388/CPM cells, 72 hours incubation, read-out: IC50): 504 nM
- IC50 ([5]; P388/MMC cells, 72 hours incubation, read-out: IC50): 1090 nM

- IC50 ([1]; Mus musculus, P388 cells, 72 hours incubation, read-out: IC50): 6.62 nM
- IC50 ([2]; Mus musculus, P388/ADM cells, 72 hours incubation, read-out: IC50): 571 nM
- IC50 ([3]; Mus musculus, P388/CDDP cells, 72 hours incubation, read-out: IC50): 18.1 nM
- IC50 ([4]; Mus musculus, P388/CPM cells, 72 hours incubation, read-out: IC50): 5.79 nM
- IC50 ([5]; Mus musculus, P388/MMC cells, 72 hours incubation, read-out: IC50): 14.7 nM
Structure (SMILES): COc1cccc2c1C(=O)c1c(O)c3c(c(O)c1C2=O)C[C@@](O)(C(=O)CO)C[C@@H]3O[C@H]1C[C@H](N)[C@H](O)[C@H](C)O1 [ADM, Adriamycin]

Structure (SMILES): COC(=O)c1c(C)[nH]c2c(OC(=O)N3CCN(C)CC3)cc3c(c12)C(CBr)CN3C(=O)c1cc2cc(OC)c(OC)c(OC)c2[nH]1 (stereo not shown) [Compound 1]
- IC50 ([1]; Mus musculus, P388, 72 h): 8.17 nM
- IC50 ([2]; Mus musculus, P388/ADM, 72 h): 15.6 nM
- IC50 ([3]; Mus musculus, P388, 72 h): 19.8 nM
- IC50 ([4]; Mus musculus, P388, 72 h): 6.34 nM
- IC50 ([5]; Mus musculus, P388, 72 h): 15.3 nM
- LD50 at 720 h [6]: 0.81 mg/kg
- Mean Survival Time (ddY mice; Dose 0.48 mg/kg): No died
- Death Rate (ddY mice; Dose 0.48 mg/kg): 0/20
- Mean Survival Time (ddY mice; Dose 0.57 mg/kg): 11.6 +/- 3.4 days +/- SD
- Death Rate (ddY mice; Dose 0.57 mg/kg): 2/20
- Mean Survival Time (ddY mice; Dose 0.69 mg/kg): 11.6 +/- 1.5 days +/- SD
- Death Rate (ddY mice; Dose 0.69 mg/kg): 3/20
- Mean Survival Time (ddY mice; Dose 0.82 mg/kg): 8.3 +/- 1.8 days +/- SD
- Death Rate (ddY mice; Dose 0.82 mg/kg): 10/20
- Mean Survival Time (ddY mice; Dose 0.99 mg/kg): 6.8 +/- 1.6 days +/- SD
- Death Rate (ddY mice; Dose 0.99 mg/kg): 17/20
- Mean Survival Time (ddY mice; Dose 1.2 mg/kg): 5.6 +/- 1.8 days +/- SD
- Death Rate (ddY mice; Dose 1.2 mg/kg): 20/20
- LD10 (ddY mice; 30 days after administration, probit analysis): 0.63 mg/kg
